# Patent EP1976842B1 (priority 2006, dated 2007)
# Where two headings read alike, the source gives them in different places.
# Target: T1, alpha7 nAChR (Rattus norvegicus, UniProt Q05941)
# T1 construct: expressed in transfected cells
# Test: cell-based
# Text: Rat GH4C1 cells were then transfected with the rat receptor, cloned and analyzed for functional alpha7 nicotinic receptor expression employing a FLIPR assay to measure changes in intracellular calcium concentrations.
# The FLIPR system allows the measurements of real time Ca^2+-concentration changes in living cells using a Ca^2+ sensitive fluorescence dye (such as Fluo4). This instrument enables the screening for agonists and antagonists for alpha 7 nAChR channels stably expressed in GH4Cl cells.
# GH4Cl cells stably transfected with rat- alpha7-nAChR (see above) were used. These cells are poorly adherent and therefore pretreatment of flasks and plates with poly-D-lysine was carried out. Cells are grown in 150 cm^2 T-flasks, filled with 30 ml of medium at 37°C and 5% CO2.
# EC50 and IC50 values were calculated using the IDBS XLfit4.1 software package employing a sigmoidal concentration-response (variable slope) equation: Y = Bottom + ((Top-Bottom)/(1+(((EC50/X))^(∧)⁢HillSlope)). [formula]
# The compounds were tested using the functional FLIPR primary screening assay employing the stable recombinant GH4C1 cell line expressing the alpha7 nAChR. Hits identified were validated further by generation of concentration-response curves.
# T1 sequence (Q05941 23-502): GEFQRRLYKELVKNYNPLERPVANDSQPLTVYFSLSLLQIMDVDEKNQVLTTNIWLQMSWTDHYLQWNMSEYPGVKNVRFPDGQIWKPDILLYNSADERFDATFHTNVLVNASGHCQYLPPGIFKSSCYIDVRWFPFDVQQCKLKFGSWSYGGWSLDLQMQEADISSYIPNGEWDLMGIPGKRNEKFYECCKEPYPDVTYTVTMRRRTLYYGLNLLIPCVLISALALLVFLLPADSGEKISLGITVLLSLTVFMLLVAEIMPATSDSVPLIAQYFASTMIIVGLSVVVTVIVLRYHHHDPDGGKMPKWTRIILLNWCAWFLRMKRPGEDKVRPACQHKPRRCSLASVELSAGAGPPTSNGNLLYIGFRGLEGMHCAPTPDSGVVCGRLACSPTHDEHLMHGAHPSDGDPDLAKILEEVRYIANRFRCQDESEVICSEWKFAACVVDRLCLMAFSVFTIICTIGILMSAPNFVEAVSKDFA
SMILES,EC50,"EC50 (agonist concentration-response, 0.001 to 30 microM, alpha7 nAChR stably expressed in GH4C1 cells, read-out: EC50)"
"C[N+](C)(C)CCO [Choline, choline]",24200 ± 8300 nM,
C[N+]1(C)CCN(c2ccccc2)CC1 [DMPP],,980 ± 470 nM
"O=c1cccc2n1C[C@@H]1CNC[C@H]2C1 [Cytisine, cytisine]",1210 ± 130 nM,
